From patent publication US9340539B2, “Hepatitis C inhibitor compounds” (priority 2011, dated 2016)

tested on: HCVpp (HCV E1/E2, isolate Con1) entry into Hep3B2.1-7 cells; experiment: microbe, parasite or virus in culture; type: cell-based; settings: Hepatitis C virus, 72 h, read-out: EC50 (nM) (Ex. 58)

Row | SMILES | EC50 [nM]
1 | CC1(C)CC(C)(C)c2c([nH]c3ccc(-c4nnc(NC5CCS(=O)(=O)C5)o4)cc23)C1=O (stereo not drawn) [Compound 1103] | 34
2 | O=C(NC1CCS(=O)(=O)C1)c1ccc2[nH]c3c(c2c1)C1(CCCC3=O)CC1 (stereo not drawn) [Compound 1104] | 122
3 | COC(=O)c1ccc2[nH]c3c(c2c1)C(C)(C)CC(C)(C)C3=O [Compound 1107] | 195
4 | CC1(C)CC(C)(C)c2c([nH]c3ccc(C(=O)NC4CCN(CCF)C4)cc23)C1=O (stereo not drawn) [Compound 2003] | 117
5 | CC1(C)CC(C)(C)c2c([nH]c3ccc(C(=O)NC4CCN(C(=O)c5ccccn5)C4)cc23)C1=O (stereo not drawn) [Compound 2026] | 36
6 | CC1(C)CC(C)(C)c2c([nH]c3ccc(C(=O)NC4CCN(S(C)(=O)=O)C4)cc23)C1=O (stereo not drawn) [Compound 2058] | 39
7 | CN1CCC[C@H](NC(=O)c2ccc3[nH]c4c(c3c2)C(C)(C)CC(C)(C)C4=O)C1 [Compound 3006] | 102
8 | CC1(C)CC2(CCOCC2)C(=O)c2[nH]c3ccc(C(=O)NC4CCS(=O)(=O)C4)cc3c21 (stereo not drawn) [Compound 5003] | 385
9 | CC1(C)CC2(CC2)C(=O)c2[nH]c3ccc(C(=O)NC4CCN(C(=O)c5nc[nH]n5)C4)cc3c21 (stereo not drawn) [Compound 5008] | 22
10 | CC1CC(C)(C)c2c([nH]c3ccc(C(=O)NC4CCS(=O)(=O)C4)cc23)C1=O (stereo not drawn) [Compound 5014] | 187
11 | COCC1(C)CC(C)(C)c2c([nH]c3ccc(C(=O)NC4CCN(C(=O)c5n[nH]c(N)n5)C4)cc23)C1=O (stereo not drawn) [Compound 5017] | 9.3
12 | CC1(C)CC2(CC2)c2c([nH]c3ccc(C(=O)NCCCn4cncn4)cc23)C1=O [Compound 6001] | 66
13 | CC1(C)CC2(CCC2)c2c([nH]c3ccc(C(=O)NC4CCN(C(=O)c5nc[nH]n5)C4)cc23)C1=O (stereo not drawn) [Compound 6016] | 3.4
14 | CC1(C)CC(C)(C)c2c([nH]c3ccc(C(=O)NC4CCS(=O)(=O)CC4)cc23)C1=O [Compound 7008] | 201
15 | Cn1cncc1CNC(=O)CNC(=O)c1ccc2[nH]c3c(c2c1)C(C)(C)CC(C)(C)C3=O [Compound 7010] | 126
16 | CC1(C)CC(C)(C)c2c([nH]c3ccc(C(=O)N[C@H]4CC[C@H](NCC5CC5)CC4)cc23)C1=O [Compound 7019] | 82
17 | CC1(C)CC(C)(C)c2c([nH]c3ccc(C(=O)Nc4cnccn4)cc23)C1=O [Compound 7050] | 88
18 | CC1(C)CC(C)(C)c2c([nH]c3cnc(C(=O)NCc4ccccn4)cc23)C1=O [Compound 9004] | 85
